Measured values from ChEMBL document CHEMBL1201862, “PubChem BioAssay data set” (2004).
Calls of active or inactive are those of the source.

How the values were obtained:
[1] = growth suppression of beta-catenin-knockout colon cells, dose response, cell-based, HCT116, human colon tumor (AID 1045); format: functional;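 further: HCT116 colon tumor cells with beta catenin knocked out; cells exposed to compound for 60 hours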
Protein RecA = biological target: T1, Protein RecA (Mycobacterium tuberculosis, UniProt P9WHJ3); experiment: Fluorescence Cell-Free Homogeneous Dose Retest to Identify Inhibitors of RecA-Intein Splicing Activity. [Related pubchem assays (depositor defined):AID2097, AID2223, AID489010, AID492950]; format: functional
T1 sequence (P9WHJ3 whole entry): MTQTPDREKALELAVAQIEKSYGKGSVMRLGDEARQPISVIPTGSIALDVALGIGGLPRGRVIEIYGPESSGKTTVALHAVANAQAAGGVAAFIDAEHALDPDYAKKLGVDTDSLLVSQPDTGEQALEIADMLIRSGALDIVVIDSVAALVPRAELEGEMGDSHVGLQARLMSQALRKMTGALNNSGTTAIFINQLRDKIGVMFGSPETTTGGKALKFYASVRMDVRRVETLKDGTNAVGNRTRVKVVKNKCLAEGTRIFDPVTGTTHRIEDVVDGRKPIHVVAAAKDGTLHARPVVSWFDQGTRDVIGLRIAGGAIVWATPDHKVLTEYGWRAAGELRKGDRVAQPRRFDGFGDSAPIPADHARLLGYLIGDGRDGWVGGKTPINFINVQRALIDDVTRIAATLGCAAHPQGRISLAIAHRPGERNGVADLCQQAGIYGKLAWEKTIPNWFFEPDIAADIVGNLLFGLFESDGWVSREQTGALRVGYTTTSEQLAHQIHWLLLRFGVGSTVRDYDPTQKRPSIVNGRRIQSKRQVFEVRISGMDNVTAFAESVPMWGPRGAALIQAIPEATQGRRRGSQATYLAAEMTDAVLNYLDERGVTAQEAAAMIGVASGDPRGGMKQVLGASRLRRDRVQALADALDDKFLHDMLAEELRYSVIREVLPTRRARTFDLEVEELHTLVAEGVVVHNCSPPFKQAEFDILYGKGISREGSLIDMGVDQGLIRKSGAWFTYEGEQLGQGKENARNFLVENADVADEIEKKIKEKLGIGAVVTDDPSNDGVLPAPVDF

[2] = growth suppression of PTEN-null colon cells, dose response, cell-based, HCT116 PTEN knockout (AID 1047); format: functional;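 further: HCT116 colon tumor cells with PTEN knocked out; cells exposed to compound for 60 hours before readout; potency for loss of cell viability measured by luminescence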
[3] = biological target: T2, Replicative DNA helicase DnaB (Mycobacterium tuberculosis, UniProt P9WMR3); experiment: DnaB intein splicing inhibitors, dose response, biochemical, cell-free fluorescence (AID 449749); format: functional
T2 sequence (P9WMR3 whole entry): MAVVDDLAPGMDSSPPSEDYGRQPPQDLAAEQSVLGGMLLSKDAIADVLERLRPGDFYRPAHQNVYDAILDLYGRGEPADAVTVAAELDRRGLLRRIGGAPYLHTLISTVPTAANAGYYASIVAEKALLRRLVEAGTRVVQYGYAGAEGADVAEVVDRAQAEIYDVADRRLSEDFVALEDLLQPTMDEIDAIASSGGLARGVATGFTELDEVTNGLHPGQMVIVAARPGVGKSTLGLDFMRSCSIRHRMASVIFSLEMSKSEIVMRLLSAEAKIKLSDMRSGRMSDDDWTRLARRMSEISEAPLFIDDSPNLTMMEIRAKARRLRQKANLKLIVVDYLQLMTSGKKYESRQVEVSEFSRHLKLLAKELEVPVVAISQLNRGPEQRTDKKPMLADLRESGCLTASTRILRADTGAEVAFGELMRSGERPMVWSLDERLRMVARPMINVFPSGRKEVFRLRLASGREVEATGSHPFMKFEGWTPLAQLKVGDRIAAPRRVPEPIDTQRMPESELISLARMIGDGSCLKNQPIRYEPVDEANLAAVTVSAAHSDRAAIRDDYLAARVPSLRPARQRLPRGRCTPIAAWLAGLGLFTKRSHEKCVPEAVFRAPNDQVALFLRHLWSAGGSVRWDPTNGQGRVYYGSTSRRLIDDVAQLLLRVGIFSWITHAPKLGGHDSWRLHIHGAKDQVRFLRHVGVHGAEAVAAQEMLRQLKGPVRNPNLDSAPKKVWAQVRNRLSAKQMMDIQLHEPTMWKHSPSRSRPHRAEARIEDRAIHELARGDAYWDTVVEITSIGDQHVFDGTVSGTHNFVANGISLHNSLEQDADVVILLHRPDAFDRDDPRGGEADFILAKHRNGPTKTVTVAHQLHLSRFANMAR

[4] = microbe, parasite or virus in culture; format: functional; conditions: Mycobacterium tuberculosis
Hexokinase HKDC1 = biological target: T3, Hexokinase HKDC1 (Homo sapiens, UniProt Q2TB90); experiment: HKDC1 hexokinase inhibitors, dose response, biochemical, W721R variant (AID 504729); format: functional
T3 sequence (Q2TB90 whole entry): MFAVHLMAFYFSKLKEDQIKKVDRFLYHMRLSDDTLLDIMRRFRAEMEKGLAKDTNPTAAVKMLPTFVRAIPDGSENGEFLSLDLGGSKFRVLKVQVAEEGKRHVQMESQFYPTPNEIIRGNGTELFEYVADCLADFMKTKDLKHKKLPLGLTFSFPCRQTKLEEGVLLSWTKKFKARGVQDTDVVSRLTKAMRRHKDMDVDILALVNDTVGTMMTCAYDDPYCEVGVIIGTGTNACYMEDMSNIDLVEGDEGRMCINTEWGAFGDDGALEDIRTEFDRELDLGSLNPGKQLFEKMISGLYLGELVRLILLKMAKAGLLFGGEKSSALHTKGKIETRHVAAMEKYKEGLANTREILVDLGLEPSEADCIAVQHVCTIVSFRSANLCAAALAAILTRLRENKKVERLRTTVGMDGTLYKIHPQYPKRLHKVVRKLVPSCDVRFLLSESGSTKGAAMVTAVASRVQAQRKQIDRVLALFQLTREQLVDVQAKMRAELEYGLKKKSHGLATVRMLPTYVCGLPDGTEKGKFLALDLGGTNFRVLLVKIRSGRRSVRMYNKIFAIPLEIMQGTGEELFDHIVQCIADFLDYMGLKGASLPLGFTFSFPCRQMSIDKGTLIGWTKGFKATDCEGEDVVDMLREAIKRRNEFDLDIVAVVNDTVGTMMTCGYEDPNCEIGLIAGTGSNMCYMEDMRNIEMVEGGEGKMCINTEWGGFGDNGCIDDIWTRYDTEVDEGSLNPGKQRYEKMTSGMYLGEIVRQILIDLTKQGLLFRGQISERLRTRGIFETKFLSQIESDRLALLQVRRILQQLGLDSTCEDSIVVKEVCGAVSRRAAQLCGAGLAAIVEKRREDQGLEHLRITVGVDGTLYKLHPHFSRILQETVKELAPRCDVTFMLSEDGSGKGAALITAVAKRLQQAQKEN

HEK293 [5] = experiment: cells; format: functional, cell-based; conditions: Homo sapiens
[6] = Shn3 3'UTR reporter inhibitors, dose response, cell-based, Clone20 osteoblasts, firefly luciferase, cherry-picked (AID 624132); format: functional;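 further: firefly luciferase luminescence from reporter carrying the Shn3 3'UTR in osteoblasts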
HEK293 [7] = experiment: NOD1 signaling inhibitors, primary screen, cell-based, luminescence, uHTS (AID 1578); format: functional; conditions: Homo sapiens
[8] = control 3'UTR Renilla luciferase suppression, dose response, counter-screen for Shn3 inhibitor project, cell-based, Clone20-Shn3RL, cherry-picked (AID 624133); format: functional
HEK293 [9] = experiment: cells; format: functional, cell-based; conditions: Homo sapiens; remark: listed apart in the source
HEK293 [10] = experiment: NOD2 signaling inhibitors in MDP-stimulated cells, cell-based, uHTS, luminescence (AID 2001); format: functional; conditions: Homo sapiens
HEK293 [11] = experiment: cells; format: functional, cell-based; conditions: Homo sapiens; remark: listed apart in the source
[12] = biological target: Nucleotide-binding oligomerization domain-containing protein 2 (Homo sapiens, UniProt Q9HC29); experiment: NOD2 signaling inhibitors, cell-based, luminescence, uHTS, HEK293 (AID 1566); format: functional
Chain of Nucleotide-binding oligomerization domain-containing protein 2 (Q9HC29 whole entry, the tested form may be a part): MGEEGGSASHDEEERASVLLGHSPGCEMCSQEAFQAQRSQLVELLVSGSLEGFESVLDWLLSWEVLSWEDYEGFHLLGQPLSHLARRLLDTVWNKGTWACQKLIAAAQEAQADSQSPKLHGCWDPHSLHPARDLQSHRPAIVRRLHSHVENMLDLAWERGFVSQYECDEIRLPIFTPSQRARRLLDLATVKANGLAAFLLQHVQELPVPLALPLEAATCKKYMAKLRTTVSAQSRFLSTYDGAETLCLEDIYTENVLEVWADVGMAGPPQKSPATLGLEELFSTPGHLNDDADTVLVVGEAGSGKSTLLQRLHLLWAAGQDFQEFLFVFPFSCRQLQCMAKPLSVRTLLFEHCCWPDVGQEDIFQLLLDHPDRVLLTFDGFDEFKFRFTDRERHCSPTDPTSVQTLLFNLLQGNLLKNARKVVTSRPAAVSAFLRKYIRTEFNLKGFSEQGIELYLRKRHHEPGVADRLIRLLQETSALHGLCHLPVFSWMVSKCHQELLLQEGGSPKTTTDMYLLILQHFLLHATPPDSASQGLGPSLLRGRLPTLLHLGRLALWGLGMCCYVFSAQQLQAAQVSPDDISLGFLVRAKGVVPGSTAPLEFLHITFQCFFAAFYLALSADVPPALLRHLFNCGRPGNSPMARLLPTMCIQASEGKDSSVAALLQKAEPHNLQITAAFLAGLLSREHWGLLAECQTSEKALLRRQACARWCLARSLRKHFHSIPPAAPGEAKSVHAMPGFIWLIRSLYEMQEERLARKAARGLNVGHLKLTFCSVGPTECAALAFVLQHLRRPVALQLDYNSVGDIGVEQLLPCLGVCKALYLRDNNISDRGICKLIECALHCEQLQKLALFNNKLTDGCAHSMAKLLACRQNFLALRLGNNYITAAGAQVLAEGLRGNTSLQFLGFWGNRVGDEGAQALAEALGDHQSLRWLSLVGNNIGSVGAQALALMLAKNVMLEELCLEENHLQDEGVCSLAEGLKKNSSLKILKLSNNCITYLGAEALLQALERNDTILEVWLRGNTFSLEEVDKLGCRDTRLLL

[13] = P. falciparum Dd2 growth inhibitors, dose response, SYBR Green, cherry-picked samples (AID 1159567); format: functional, cell-based
[14] = P. falciparum 3D7-ScDHODH growth inhibitors, dose response, SYBR Green, dry powder samples (AID 1159570); format: functional, cell-based;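 further: parasite growth measured after 72 hours of compound exposure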
[15] = P. falciparum ATP4 D1247Y mutant growth inhibitors, dose response, NITD609-resistant line, SYBR Green, dry powder (AID 1159571); format: functional, cell-based;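 further: parasites synchronized at ring stage by sorbitol before testing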
[16] = P. falciparum Dd2 growth inhibitors, dose response, SYBR Green, dry powder samples (AID 1159566); format: functional, cell-based;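 further: potency for growth inhibition with lower SYBR green DNA signal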
[17] = NIH:OVCAR-3 ovarian cancer cell cytotoxicity, dose response, PAX8 inhibitor project, plate reader, dry powder samples (AID 743044); format: functional, cell-based
[18] = inhibitors of HIV Env-driven cell fusion, dose response, cherry-pick (AID 652057); format: functional, cell-based
[19] = cytotoxicity in OVCAR8 ovarian cancer cells, dose response, PAX8 project, cell-based, plate reader, dry powder samples (AID 743197); format: functional; conditions: OVCAR-8
[20] = inhibitors of clade B AD8 Env fusion, dose response, cell-based, cherry-pick (AID 652062); format: functional;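 further: luciferase signal from cell-cell fusion driven by HIV-1 clade B AD8 Env; potency is for inhibitors of fusion seen as a drop in luminescence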
[21] = IGROV1 ovarian cancer cell cytotoxicity, dose response, PAX8 inhibitor project, plate reader, dry powder samples (AID 743043); format: functional, cell-based; conditions: IGROV-1
Paired box protein Pax-8 = Paired box protein Pax-8 (Homo sapiens, UniProt Q06710); experiment: inhibitors of PAX8-driven TPO luciferase reporter, dose response, RMG-I cells, cherry-pick (AID 687027); format: functional, cell-based;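 further: luciferase reporter driven by Pax8 target thyroperoxidase promoter measured by SteadyGlo luminescence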
Chain of Paired box protein Pax-8 (Q06710 whole entry): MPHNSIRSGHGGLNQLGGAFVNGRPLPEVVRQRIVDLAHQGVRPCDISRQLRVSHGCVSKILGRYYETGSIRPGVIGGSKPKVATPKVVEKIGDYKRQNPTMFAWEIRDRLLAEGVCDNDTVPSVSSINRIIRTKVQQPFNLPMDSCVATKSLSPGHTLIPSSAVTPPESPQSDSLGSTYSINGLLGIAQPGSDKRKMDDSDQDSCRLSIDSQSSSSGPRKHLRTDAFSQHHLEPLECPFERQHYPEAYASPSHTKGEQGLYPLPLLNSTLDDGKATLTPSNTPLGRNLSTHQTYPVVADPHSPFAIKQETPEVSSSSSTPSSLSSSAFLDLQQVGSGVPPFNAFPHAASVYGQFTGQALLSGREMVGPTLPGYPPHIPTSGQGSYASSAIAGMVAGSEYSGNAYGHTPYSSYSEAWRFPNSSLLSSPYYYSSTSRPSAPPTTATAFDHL

O=C1c2ccccc2-c2onc3ccc(Oc4ccccc4)c1c23
EC50 [1]: 6.7 µM (active) | EC50 (Protein RecA): 0.452 µM (active) | EC50 [2]: 6.21 µM (active) | AC50 [3]: 1.38 µM (active) | CC50 [4]: 9.25 µM (active) | IC50 (Hexokinase HKDC1): 70.7 µM (inactive)

COc1cc(C2c3c([nH]c(=O)[nH]c3=O)Nc3ccc4ccccc4c32)cc(OC)c1OC (stereo not given)
IC50 (Hexokinase HKDC1): 15.2 µM (active)

COc1cc(OC)c(OC)cc1/C=C1\CC(C)C/C(=C\c2cc(OC)c(OC)cc2OC)C1=O (stereo not given)
IC50 (HEK293 [5]): > 20 µM (inactive) | AC50 [6]: 3.22 µM (active) | EC50 (HEK293 [7]): 6.38 µM (active) | AC50 [8]: 5.08 µM (active) | IC50 (HEK293 [9]): 5.7 µM (active) | IC50 (HEK293 [10]): 6.92 µM (active) | IC50 (HEK293 [11]): 15.7 µM (active) | EC50 [12]: 7.31 µM (active)

COc1ccc(S(=O)(=O)Nc2cccc3c2O[C@H](CN(C)Cc2ccc(-c4ccccc4)cc2)[C@@H](C)CN([C@H](C)CO)C3=O)cc1
AC50 [13]: 0.955 µM (active) | AC50 [14]: 1.02 µM (active) | AC50 [15]: 0.696 µM (active) | AC50 [16]: 0.587 µM (active)

Cc1noc(C)c1S(=O)(=O)Nc1ccc2c(c1)CC(=O)N([C@@H](C)CO)C[C@@H](C)[C@H](CN(C)Cc1ccc(Cl)c(Cl)c1)O2
AC50 [17]: 41.1 µM (active) | AC50 [18]: 10.9 µM (active) | AC50 [19]: 21.1 µM (active) | AC50 [20]: 1.42 µM (active) | AC50 [21]: 12.6 µM (active) | AC50 (Paired box protein Pax-8): 1.19 µM (active)

C[C@H](CO)N1C[C@H](C)[C@@H](CN(C)Cc2ccc(-c3ccccc3)cc2)Oc2ccc(NS(=O)(=O)c3ccc(F)cc3)cc2CC1=O
AC50 [17]: 29.7 µM (active) | AC50 [19]: 55.8 µM (active) | AC50 [21]: 27.8 µM (active) | AC50 (Paired box protein Pax-8): 8.82 µM (active)

OC[C@H]1[C@H](c2ccccc2)C2(CN(Cc3ccccc3F)C2)N1Cc1ccccc1F
AC50 [14]: 1.1 µM (active) | AC50 [15]: 1.15 µM (active) | AC50 [16]: 0.542 µM (active)

C[C@H](CO)N1C[C@H](C)[C@@H](CN(C)S(=O)(=O)c2ccc(C(F)(F)F)cc2)OCc2ccccc2-c2c(n(C)c3ccccc23)C1=O
AC50 [13]: 0.95 µM (active) | AC50 [14]: 0.777 µM (active) | AC50 [15]: 0.885 µM (active) | AC50 [16]: 0.599 µM (active)

CCCC(=O)N1CC2(C1)CN(S(=O)(=O)c1ccc(C)cc1)[C@@H](CO)c1[nH]c3cc(OC)ccc3c12
AC50 [13]: 2.14 µM (active) | AC50 [14]: 3.18 µM (active) | AC50 [15]: 1.67 µM (active) | AC50 [16]: 1.65 µM (active)
